Assay results: patent US7081464B2, “Topical compositions of cyclic amides as immunotherapeutic agents” (Celgene Corporation, priority 1995, dated 2006)

Row | melting point | Structure (SMILES)
1 | 159 to 162 °C | COc1ccc(C(CC(=O)O)N2C(=O)c3ccccc3C2=O)cc1OC1CCCC1 (centres unmarked) [Example 2, 3-Phthalimido-3-(3-cyclopentyloxy-4-methoxyphenyl)propionic Acid]
2 | 76 to 78 °C | COC(=O)CC(c1ccc(OC)c(OC2CCCC2)c1)N1C(=O)c2ccccc2C1=O (centres unmarked) [Example 5, Methyl 3-phthalimido-3-(3-cyclopentyloxy-4-methoxyphenyl)propionate]
